Some test systems named below: COLO 205 colon; HCT-15 colon; LOX IMVI melanoma; M14 melanoma; MDA-MB-231 breast; MOLT-4 leukemia; SF-268 CNS; SF-295 CNS; SK-MEL-5 melanoma; UACC-257 melanoma.
Common to all, as to assay: NCI anticancer screen, dose series, 48 h

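Tested at 5 concentrations; 48 h exposure; 96-well plates; endpoints linearly interpolated, else capped at highest concentration. Abbreviation: GI50, concentration required for 50% inhibition of growth. TGI is the concentration that stops growth completely.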 Peptide text beside a SMILES is read from it. * marks the point of attachment. X26 = Clc1c(Cl)c(Cl)c(O*)c(Cl)c1Cl; Boc = CC(C)(C)OC(=O)*; OBn = c1ccc(CO*)cc1; Bn = c1ccc(C*)cc1 Bounds are passed on as bounds.

On to `O=CN1CCN(C(=O)c2ccco2)C1=S`, for which the TGI with COLO 205 colon came out at 24.4 µM; in the experiment on HCT-15 colon, 25.7 µM; in the experiment with LOX IMVI melanoma, 14.8 µM; in the experiment on M14 melanoma, 24.1 µM; with MDA-MB-231 breast, 33.9 µM; with MOLT-4 leukemia, 35 µM. Further, the TGI came out at 28.8 µM with SF-268 CNS, 51.1 µM with SF-295 CNS, 29.1 µM with SK-MEL-5 melanoma and 33 µM with UACC-257 melanoma.

For the molecule `CC(C)CC(NC(=O)C(CCC(=O)OCc1ccccc1)NC(=O)OC(C)(C)C)C(=O)NC(COCc1ccccc1)C(=O)NC(Cc1ccccc1)C(=O)Oc1c(Cl)c(Cl)c(Cl)c(Cl)c1Cl` (stereo not given) (Boc-E(OBn)LS(Bn)F-X26; configuration not given here), the TGI with COLO 205 colon is 58.5 µM; in the experiment with HCT-15 colon, 51 µM; in the experiment on LOX IMVI melanoma it was greater than 100 µM; in the experiment with M14 melanoma, 78 µM; in the experiment with MDA-MB-231 breast, 34.5 µM; in the experiment with MOLT-4 leukemia, 54.1 µM. Further, the TGI with SF-268 CNS was greater than 100 µM; in the experiment on SF-295 CNS it was 68.1 µM; with SK-MEL-5 melanoma, 40.9 µM; in the experiment with UACC-257 melanoma, 66.3 µM.

In the case of `C=C1CC(COc2ccc3c(C)c(C)c(=O)oc3c2C)(c2ccccc2)OC1=O` (stereo not given), the TGI with COLO 205 colon was 3.24 µM; in the experiment on HCT-15 colon it was 3.84 µM; in the experiment with LOX IMVI melanoma it was 2.85 µM; in the experiment with M14 melanoma it was 4.23 µM; in the experiment with MDA-MB-231 breast it was 7.86 µM; with MOLT-4 leukemia, 3.05 µM. Further, the TGI in the experiment with SF-268 CNS worked out at 7.96 µM; in the experiment with SF-295 CNS, 19.2 µM; in the experiment with SK-MEL-5 melanoma it was 3.23 µM; with UACC-257 melanoma it was 2.14 µM.

In the case of `O=C(Sc1c(-c2ccccc2)c(=O)n(-c2ccccc2)c(=S)n1-c1ccccc1)c1ccco1`, the TGI in the experiment on COLO 205 colon, with HCT-15 colon, with LOX IMVI melanoma, with M14 melanoma, with MDA-MB-231 breast and in the experiment with MOLT-4 leukemia was greater than 100 µM each time. Further, the TGI was greater than 100 µM in the experiment with SF-268 CNS, greater than 100 µM with SF-295 CNS, greater than 100 µM with SK-MEL-5 melanoma and greater than 31.6 µM in the experiment on UACC-257 melanoma.

On to `O=c1ccn(-c2ccccn2)c(=O)n1-c1ccccn1`, for which the TGI in the experiment with COLO 205 colon, in the experiment with HCT-15 colon, in the experiment on LOX IMVI melanoma, with M14 melanoma, in the experiment with MDA-MB-231 breast and with MOLT-4 leukemia was greater than 100 µM throughout. For the same molecule, the TGI in the experiment on SF-268 CNS, with SF-295 CNS, in the experiment with SK-MEL-5 melanoma and with UACC-257 melanoma was greater than 100 µM each time.

Regarding `CCCCCCCCCCCCNC(=O)CCC(NC(=O)c1ccc(N(C)Cc2cnc3nc(N)nc(N)c3n2)cc1)C(=O)NCCCCCCCCCCCC` (stereo not given), the TGI is greater than 100 µM in the experiment on COLO 205 colon; greater than 100 µM in the experiment on HCT-15 colon; 30.7 µM in the experiment with LOX IMVI melanoma; greater than 100 µM in the experiment on M14 melanoma; greater than 100 µM in the experiment on MDA-MB-231 breast; greater than 100 µM in the experiment with MOLT-4 leukemia. Besides, the TGI in the experiment with SF-268 CNS, with SF-295 CNS, in the experiment on SK-MEL-5 melanoma and in the experiment with UACC-257 melanoma was greater than 100 µM throughout.

Regarding `O=C1c2cccnc2S(=O)(=O)N1c1ccc([N+](=O)[O-])cc1`, the TGI in the experiment with COLO 205 colon, in the experiment with HCT-15 colon, with LOX IMVI melanoma, with M14 melanoma, with MDA-MB-231 breast and with MOLT-4 leukemia was greater than 100 µM in each case. In addition, the TGI in the experiment with SF-268 CNS, with SF-295 CNS, with SK-MEL-5 melanoma and with UACC-257 melanoma was greater than 100 µM throughout.

On to `COC(=O)C1=C(C)NC(C)=C(C(=O)OC)C1c1cccc(N=O)c1`, for which the TGI in the experiment with COLO 205 colon is 32.6 µM; with HCT-15 colon, 32.5 µM; in the experiment with LOX IMVI melanoma it was 31.6 µM; with M14 melanoma, 27 µM; in the experiment with MDA-MB-231 breast, 27.9 µM; in the experiment on MOLT-4 leukemia it was greater than 100 µM. Moreover, the TGI is 30.8 µM in the experiment on SF-268 CNS, greater than 100 µM in the experiment with SF-295 CNS, 29.8 µM with SK-MEL-5 melanoma and 30.2 µM in the experiment with UACC-257 melanoma.

As for `S=c1[nH]nc(Cn2c3ccc(Br)cc3c3nc4ccccc4nc32)n1C1CCCCC1`, the TGI with COLO 205 colon was greater than 59.8 µM; in the experiment with HCT-15 colon, greater than 100 µM; in the experiment on LOX IMVI melanoma, 23 µM; with M14 melanoma it was greater than 100 µM; with MDA-MB-231 breast, greater than 75.2 µM; in the experiment with MOLT-4 leukemia it was 28.6 µM. Also, the TGI with SF-268 CNS was greater than 100 µM; with SF-295 CNS, 49.5 µM; in the experiment with SK-MEL-5 melanoma it was 49.1 µM; with UACC-257 melanoma it was greater than 100 µM.

With `Cc1cc(OCc2nnc3sc(NC(=O)c4ccccc4)nn23)ccc1Cl`, the TGI is greater than 100 µM with COLO 205 colon; greater than 100 µM with HCT-15 colon; 78.7 µM in the experiment on LOX IMVI melanoma; greater than 100 µM in the experiment with M14 melanoma; greater than 100 µM in the experiment on MDA-MB-231 breast; greater than 100 µM in the experiment on MOLT-4 leukemia. The TGI in the experiment on SF-268 CNS, with SF-295 CNS, in the experiment on SK-MEL-5 melanoma and in the experiment on UACC-257 melanoma was greater than 100 µM in each case.

For the molecule `CC(=O)C1(O)CCC2(O)C3(O)CC=C4CC(O)CCC4(C)C3CC(OC(=O)c3ccc(O)cc3)C12C` (stereo not given), the TGI in the experiment on COLO 205 colon, in the experiment with HCT-15 colon, in the experiment on LOX IMVI melanoma, in the experiment on M14 melanoma, in the experiment on MDA-MB-231 breast and in the experiment on MOLT-4 leukemia was greater than 100 µM each time. Moreover, the TGI with SF-268 CNS, in the experiment with SF-295 CNS, with SK-MEL-5 melanoma and in the experiment on UACC-257 melanoma was greater than 100 µM throughout.

Take `CCCCCCc1cc2cc(-c3csc(-c4ccc(OC)cc4)n3)c(=O)oc2cc1O`: the TGI is greater than 100 µM in the experiment with COLO 205 colon; 46.8 µM with HCT-15 colon; 30.4 µM in the experiment with LOX IMVI melanoma; 27.5 µM in the experiment on M14 melanoma; 25.3 µM in the experiment with MDA-MB-231 breast; greater than 100 µM with MOLT-4 leukemia. Moreover, the TGI in the experiment with SF-268 CNS was 14.9 µM; in the experiment on SF-295 CNS, 28.5 µM; in the experiment on SK-MEL-5 melanoma it was 47.7 µM; in the experiment with UACC-257 melanoma, 32.6 µM.

`NC(N)=NS(=O)(=O)c1ccc(NC(=O)c2cccc3c(NNc4ccc(S(N)(=O)=O)cc4)c4ccccc4nc23)cc1`: the TGI is greater than 100 µM with COLO 205 colon; greater than 100 µM in the experiment on HCT-15 colon; 36.5 µM in the experiment on LOX IMVI melanoma; greater than 100 µM with M14 melanoma; greater than 100 µM in the experiment with MDA-MB-231 breast; 74.1 µM with MOLT-4 leukemia. In addition, the TGI in the experiment on SF-268 CNS, with SF-295 CNS, with SK-MEL-5 melanoma and with UACC-257 melanoma was greater than 100 µM in each case.

Turning to `O=C1/C(=C/c2ccc(Cl)cc2)CCCc2ccc(F)cc21`, the GI50 in the experiment with COLO 205 colon was 18.7 µM; in the experiment with HCT-15 colon, 22.1 µM; in the experiment on LOX IMVI melanoma, 14.4 µM; with M14 melanoma it was 11.6 µM; in the experiment with MDA-MB-231 breast, 19.8 µM; in the experiment on MOLT-4 leukemia, 12.1 µM. Also, the GI50 with SF-268 CNS was 19.9 µM; with SF-295 CNS it was 31.4 µM; with SK-MEL-5 melanoma, 17.4 µM; in the experiment on UACC-257 melanoma it was 16.7 µM. The TGI in the experiment on COLO 205 colon was 56.3 µM; in the experiment on HCT-15 colon, greater than 100 µM; with LOX IMVI melanoma, 31.8 µM; in the experiment on M14 melanoma, 39.2 µM; with MDA-MB-231 breast, 52.8 µM; in the experiment with MOLT-4 leukemia, greater than 100 µM. The TGI was 46.9 µM with SF-268 CNS, greater than 100 µM with SF-295 CNS, 31.3 µM in the experiment on SK-MEL-5 melanoma and 42.9 µM in the experiment with UACC-257 melanoma.

As to `COc1cccc(N2C(=O)CS(=O)(=O)C2c2cccc(Oc3ccccc3)c2)c1` (stereo not given), the TGI was 42.4 µM with COLO 205 colon; greater than 100 µM in the experiment on HCT-15 colon; 51.1 µM in the experiment on LOX IMVI melanoma; 89.7 µM in the experiment with M14 melanoma; greater than 100 µM in the experiment on MDA-MB-231 breast; 57.6 µM in the experiment with MOLT-4 leukemia. The TGI in the experiment with SF-268 CNS is greater than 100 µM; with SF-295 CNS, greater than 100 µM; in the experiment on SK-MEL-5 melanoma, 22.6 µM; with UACC-257 melanoma it was 44.1 µM.

On to `Nc1c(S(N)(=O)=O)cc(S(N)(=O)=O)cc1S(N)(=O)=O`, for which the TGI with COLO 205 colon, with HCT-15 colon, in the experiment with LOX IMVI melanoma, in the experiment with M14 melanoma, in the experiment on MDA-MB-231 breast and in the experiment with MOLT-4 leukemia was greater than 100 µM throughout. The TGI in the experiment on SF-268 CNS, with SF-295 CNS, with SK-MEL-5 melanoma and in the experiment with UACC-257 melanoma was greater than 100 µM each time.

For the molecule `O=P1(C(O)/C=C/c2ccccc2)N(Cc2ccccc2)[C@@H]2CCCC[C@H]2N1Cc1ccccc1` (stereo not given in full), the TGI with COLO 205 colon was found to be 6.26 µM; in the experiment with HCT-15 colon, 43.8 µM; with LOX IMVI melanoma, 13.7 µM; in the experiment on M14 melanoma, 19.8 µM; with MDA-MB-231 breast it was 26.2 µM; with MOLT-4 leukemia it was 9.77 µM. Moreover, the TGI was 14.2 µM with SF-268 CNS, 26.8 µM with SF-295 CNS, 16.4 µM in the experiment on SK-MEL-5 melanoma and 16.2 µM with UACC-257 melanoma.

In the case of `CC(O)CNC1=CC(=O)C(=O)c2ccccc21` (stereo not given), the TGI in the experiment on COLO 205 colon amounted to 22 µM; in the experiment on HCT-15 colon it was 33.6 µM; in the experiment on LOX IMVI melanoma it was 34.8 µM; in the experiment with M14 melanoma, 32.1 µM; with MDA-MB-231 breast, 73.6 µM; in the experiment with MOLT-4 leukemia, 59.9 µM. Also, the TGI with SF-268 CNS turned out to be 33.9 µM; in the experiment with SF-295 CNS it was 27 µM; with SK-MEL-5 melanoma, 15 µM; in the experiment with UACC-257 melanoma, 30.3 µM.

These data come from PubChem BioAssay (NCI).
